Results published in ChEMBL document CHEMBL1139339, “Alantrypinone and its derivatives: synthesis and antagonist activity toward insect GABA receptors” (2009).
Activity calls are given as the source filed them. No cut-off for these calls is given here.

Test system: Musca domestica
Assay: Displacement of [3H]EBOB from housefly GABA receptor

Structure (SMILES) | Activity
CC(C)C[C@@]12NC(=O)[C@H](C[C@@]13C(=O)Nc1ccccc13)n1c2nc2ccccc2c1=O (racemic) | Active
CC(C)C[C@@]12NC(=O)[C@H](C[C@]13C(=O)Nc1ccccc13)n1c2nc2ccccc2c1=O (racemic) | Active
CC(C)[C@@]12NC(=O)[C@H](C[C@@]13C(=O)Nc1ccccc13)n1c2nc2ccccc2c1=O (racemic) | Active
CC(C)[C@@]12NC(=O)[C@H](C[C@]13C(=O)Nc1ccccc13)n1c2nc2ccccc2c1=O (racemic) | Active
CN1C(=O)[C@@H]2C[C@@]3(C(=O)N(Cc4ccccc4)c4ccccc43)[C@]1(C)c1nc3ccccc3c(=O)n12 (racemic) | Active
CN1C(=O)[C@@H]2C[C@]3(C(=O)N(Cc4ccccc4)c4ccccc43)[C@]1(C)c1nc3ccccc3c(=O)n12 (racemic) | Active
CN1C(=O)[C@@H]2C[C@]3(C(=O)Nc4ccccc43)[C@]1(C)c1nc3ccccc3c(=O)n12 (racemic) | Active
CN1C(=O)[C@@H]2[C@H]3C(=O)N(c4ccccc4)C(=O)[C@H]3[C@]1(C)c1nc3ccccc3c(=O)n12 (racemic) | Active
CN1C(=O)[C@@]2(C[C@H]3C(=O)N(C)[C@@]2(C)c2nc4ccccc4c(=O)n23)c2ccccc21 (racemic) | Active
CN1C(=O)[C@@]2(C[C@H]3C(=O)N[C@@]2(C)c2nc4ccccc4c(=O)n23)c2ccccc21 (racemic) | Active
CN1C(=O)[C@]2(C[C@H]3C(=O)N(C)[C@@]2(C)c2nc4ccccc4c(=O)n23)c2ccccc21 (racemic) | Active
CN1C(=O)[C@]2(C[C@H]3C(=O)N[C@@]2(C)c2nc4ccccc4c(=O)n23)c2ccccc21 (racemic) | Active
C[C@@]12NC(=O)[C@H](C[C@@]13C(=O)N(Cc1ccccc1)c1ccccc13)n1c2nc2ccccc2c1=O (racemic) | Active
C[C@@]12NC(=O)[C@H](C[C@@]13C(=O)Nc1ccc(Cl)cc13)n1c2nc2ccc(Cl)cc2c1=O (racemic) | Active
C[C@@]12NC(=O)[C@H](C[C@@]13C(=O)Nc1ccc(Cl)cc13)n1c2nc2ccccc2c1=O (racemic) | Active
C[C@@]12NC(=O)[C@H](C[C@@]13C(=O)Nc1ccccc13)n1c2nc2cc(Cl)ccc2c1=O (racemic) | Active
C[C@@]12NC(=O)[C@H](C[C@@]13C(=O)Nc1ccccc13)n1c2nc2ccc(Cl)cc2c1=O (racemic) | Active
C[C@@]12NC(=O)[C@H](C[C@@]13C(=O)Nc1ccccc13)n1c2nc2ccc(F)cc2c1=O (racemic) | Active
C[C@@]12NC(=O)[C@H](C[C@@]13C(=O)Nc1ccccc13)n1c2nc2ccccc2c1=O (racemic) | Active
C[C@@]12NC(=O)[C@H](C[C@]13C(=O)N(Cc1ccccc1)c1ccccc13)n1c2nc2ccccc2c1=O (racemic) | Active
C[C@@]12NC(=O)[C@H](C[C@]13C(=O)Nc1ccc(Cl)cc13)n1c2nc2ccc(Cl)cc2c1=O (racemic) | Active
C[C@@]12NC(=O)[C@H](C[C@]13C(=O)Nc1ccc(Cl)cc13)n1c2nc2ccccc2c1=O (racemic) | Active
C[C@@]12NC(=O)[C@H](C[C@]13C(=O)Nc1ccccc13)n1c2nc2cc(Cl)ccc2c1=O (racemic) | Active
C[C@@]12NC(=O)[C@H](C[C@]13C(=O)Nc1ccccc13)n1c2nc2ccc(Cl)cc2c1=O (racemic) | Active
C[C@@]12NC(=O)[C@H](C[C@]13C(=O)Nc1ccccc13)n1c2nc2ccc(F)cc2c1=O (racemic) | Active
C[C@@]12NC(=O)[C@H](C[C@]13C(=O)Nc1ccccc13)n1c2nc2ccccc2c1=O (racemic) | Active
C[C@@]12NC(=O)[C@H]([C@H]3C(=O)N(c4ccccc4)C(=O)[C@H]31)n1c2nc2ccccc2c1=O (racemic) | Active
O=C1N[C@@]2(Cc3ccccc3)c3nc4ccccc4c(=O)n3[C@H]1C[C@@]21C(=O)Nc2ccccc21 (racemic) | Active
O=C1N[C@@]2(Cc3ccccc3)c3nc4ccccc4c(=O)n3[C@H]1C[C@]21C(=O)Nc2ccccc21 (racemic) | Active

Test system: Neuron
Assay: Inhibition of GABA-induced inward current in Periplaneta americana L neuron at 10 uM for 5 min by whole-cell patch clamp method
Type: functional

Structure (SMILES) | inhibition at 10 µM [%]
C[C@@]12NC(=O)[C@H](C[C@]13C(=O)Nc1ccccc13)n1c2nc2ccccc2c1=O | 90.3
